Six molecules from ChEMBL document CHEMBL4229562, “Introduction of a Methyl Group Curbs Metabolism of Pyrido[3,4- d]pyrimidine Monopolar Spindle 1 (MPS1) Inhibitors and Enables the Discovery of the Phase 1 Clinical Candidate N2-(2-Ethoxy-4-(4-methyl-4 H-1,2,4-triazol-3-yl)phenyl)-6-methyl- N8-neopentylpyrido[3,4- d]pyrimidine-2,8-diamine …” (J Med Chem, 2018) can be followed below.

Values after ≈ are worked out from the molar mass of the structure shown.

As a reminder, the Ki is the dissociation constant of the complex between target and ligand, obtained from inhibition or displacement. Higher therefore signals a looser hold on the target. In general, logP refers to a log measure of how a compound divides between an organic and an aqueous phase. The term IC50 denotes the concentration that inhibits the measured activity by half. Usually solubility stands for the dissolved amount per volume that the medium holds. Read a high solubility as much dissolved substance. For orientation: AUC(0-t) means the area under the concentration-time curve up to a stated or last time point. Low values mean less exposure, high ones more exposure. As usually defined, the Cmax is the maximum level reached in the sampled fluid or tissue. By bioavailability is commonly meant dose-corrected exposure relative to a reference, in per cent. For orientation: Vdss means the apparent volume that relates the amount in the body to the concentration in plasma or blood. Low readings indicate confinement near the circulation, high ones extensive tissue distribution. One may read the pKa as the negative logarithm of the acid dissociation constant. Higher therefore signals a group that holds its proton tightly. What is called clearance is a measure of how efficiently the substance is removed, as volume per time.

Series [1] in a line: Intrinsic clearance in human liver microsomes assessed per mg protein at 1 uM preincubated for 10 mins followed NADPH/UDP-glucuronic acid addition and measured after 30 mins by LC-MS/MS analysis. As to conditions: 0.5 h; call rule not given here. It is filed as ADME, microsome. A general note: Liver microsomes are a subcellular fraction often used to study metabolism.
The target in series [2] is T1, Dual specificity protein kinase TTK (Homo sapiens, UniProt P33981).
T1 sequence (P33981 whole entry): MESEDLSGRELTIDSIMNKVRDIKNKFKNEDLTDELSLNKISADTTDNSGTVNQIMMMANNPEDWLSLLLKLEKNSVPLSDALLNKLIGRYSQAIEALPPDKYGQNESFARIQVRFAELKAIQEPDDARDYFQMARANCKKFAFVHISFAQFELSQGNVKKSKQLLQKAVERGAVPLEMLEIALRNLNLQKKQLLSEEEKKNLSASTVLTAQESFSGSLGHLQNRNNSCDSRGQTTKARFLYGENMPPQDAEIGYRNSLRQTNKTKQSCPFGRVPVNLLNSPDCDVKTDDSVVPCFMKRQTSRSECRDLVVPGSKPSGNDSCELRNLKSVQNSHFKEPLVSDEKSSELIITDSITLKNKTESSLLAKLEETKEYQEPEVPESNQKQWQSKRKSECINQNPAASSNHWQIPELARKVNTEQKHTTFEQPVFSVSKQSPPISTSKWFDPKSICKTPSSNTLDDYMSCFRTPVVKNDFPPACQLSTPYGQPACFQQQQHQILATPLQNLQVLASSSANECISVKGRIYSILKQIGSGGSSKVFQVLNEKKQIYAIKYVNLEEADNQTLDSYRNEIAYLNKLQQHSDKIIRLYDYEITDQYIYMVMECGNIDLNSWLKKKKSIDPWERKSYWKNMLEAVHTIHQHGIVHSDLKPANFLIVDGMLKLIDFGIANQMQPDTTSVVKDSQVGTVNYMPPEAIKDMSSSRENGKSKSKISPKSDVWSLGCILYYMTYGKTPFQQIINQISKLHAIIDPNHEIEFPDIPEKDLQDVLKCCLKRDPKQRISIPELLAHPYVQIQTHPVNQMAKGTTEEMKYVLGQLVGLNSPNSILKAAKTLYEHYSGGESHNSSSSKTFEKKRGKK
Description: Inhibition of full length human N-terminal 6xHis-tagged MPS1 expressed in baculovirus expression system using 5FAM-H236 peptide as substrate after 60 to 90 mins by caliper assay

The nature of series [3]: Drug metabolism in human liver microsomes assessed as 5-(3-methoxy-4-(8-(neopentylamino)pyrido[3,4-d]pyrimidin-2-ylamino)phenyl)-4-methyl-4H-1,2,4-triazol-3-ol formation at 1 uM preincubated for 10 mins followed NADPH/UDP-glucuronic acid addition and measured after 30 mins by LC-MS/MS analysis. It is filed as ADME, microsome. The note with it: 0.5 h.
Series [4] is described as follows: Lipophilicity, log P of the compound. It is filed as physicochemical. As to conditions: octanol/water.
Another series concerns the target CDK2/Cyclin A2 (Homo sapiens, UniProt P24941).
A short description of series [5]: Intrinsic clearance in CD1 mouse liver microsomes assessed per mg protein at 1 uM preincubated for 10 mins followed NADPH/UDP-glucuronic acid addition and measured after 30 mins by LC-MS/MS analysis. It counts as ADME, microsome. The note with it: 0.5 h.
The target of series [6] is T1, Dual specificity protein kinase TTK. The source holds these as a separate data set.
Description: Inhibition of MPS1 autophosphorylation at Thr33/Ser37 in human HCT116 cells after 2 hrs by MSD assay
Series [7] can be described thus: Drug metabolism in human liver microsomes assessed as 1-(2-(2-methoxy-4-(4-methyl-4H-1,2,4-triazol-3-yl)phenylamino)-6-methylpyrido[3,4-d]pyrimidin-8-ylamino)-2,2-dimethylpropan-1-ol formation at 1 uM preincubated for 10 mins followed NADPH/UDP-glucuronic acid addition and measured after 30 mins by LC-MS/MS analysis. It is filed as ADME, microsome. As to conditions: 0.5 h.

Series [8] in a line: Solubility of the compound in PBS buffer at pH 7.4 by HPLC analysis. It counts as physicochemical.
A short description of series [9]: Drug level in human liver microsomes treated with 1 uM N2-(2-Methoxy-4-(4-methyl-4H-1,2,4-triazol-3-yl)phenyl)-6-methyl-N8-neopentylpyrido[3,4-d]pyrimidine-2,8-diamine assessed as compound formation preincubated for 10 mins followed NADPH/UDP-glucuronic acid addition and measured after 30 mins by LC-MS/MS analysis. It is filed as ADME, microsome. The note with it: 0.5 h.

Series [10] can be described thus: AUClast in dog at 5 mg/kg, po measured after 48 hrs by ESI-LCMS/MS analysis. It is filed as ADME, organism-based, Canis lupus familiaris. As to conditions: in vivo.
Series [11] is described as follows: Cmax in dog at 5 mg/kg, po by ESI-LCMS/MS analysis. The note with it: in vivo. The arrangement: dose 5 mg/kg, route oral. It is filed as ADME, organism-based, Canis lupus familiaris.
Series [12] relates to Canis familiaris. As to the kind of experiment: Half life in dog at 1 mg/kg, iv by ESI-LCMS/MS analysis. The note with it: in vivo. It is filed as ADME, organism-based, Canis lupus familiaris.
Series [13] can be described thus: Oral bioavailability in dog at 5 mg/kg by ESI-LCMS/MS analysis. The note with it: in vivo. It is filed as ADME, organism-based, Canis lupus familiaris.
Series [14] deals with Canis familiaris. The series can be described thus: Volume of distribution at steady state in dog at 1 mg/kg, iv by ESI-LCMS/MS analysis. As to conditions: in vivo. It counts as ADME, organism-based, Canis lupus familiaris.
A short description of series [15]: Drug level in human liver microsomes treated with 1 uM N2-(2-Methoxy-4-(4-methyl-4H-1,2,4-triazol-3-yl)phenyl)-N8-neopentylpyrido[3,4-d]pyrimidine-2,8-diamine assessed as compound formation preincubated for 10 mins followed NADPH/UDP-glucuronic acid addition and measured after 30 mins by LC-MS/MS analysis. As to conditions: 0.5 h. It is filed as ADME, microsome.

Series [16] can be described thus: AUClast in mouse at 5 mg/kg, po measured after 6 hrs by ESI-LCMS/MS analysis. It is filed as ADME, organism-based. As to conditions: in vivo.
In series [17] the target is Leucine-rich repeat serine/threonine-protein kinase 2 (Homo sapiens, UniProt Q5S007). The series can be described thus: Inhibition of recombinant human GST-tagged LRRK2 (970 to 2527 residues) expressed in baculovirus expression system by Z'-LYTE assay.
Series [18] in a line: AUClast in rat at 5 mg/kg, po measured after 24 hrs by ESI-LCMS/MS analysis. It is filed as ADME, organism-based. The note with it: in vivo.
Series [19] concerns Rattus norvegicus. As to the kind of experiment: Half life in rat at 2.5 mg/kg, iv by ESI-LCMS/MS analysis. It is filed as ADME, organism-based. As to conditions: in vivo.
Series [20] addresses Mitogen-activated protein kinase 9 (Homo sapiens, UniProt P45984). As to the kind of experiment: Inhibition of recombinant human full length His-tagged JNK2 expressed in baculovirus expression system by Z'-LYTE assay.
In series [21] the target is Mitogen-activated protein kinase 10 (Homo sapiens, UniProt P53779). The series can be described thus: Inhibition of recombinant human full length N-terminal GST-tagged JNK3 expressed in baculovirus expression system by Z'-LYTE assay.
Series [22] can be described thus: Cmax in mouse at 5 mg/kg, po by ESI-LCMS/MS analysis. More on the design: dose 5 mg/kg, route oral. It counts as ADME, organism-based. As to conditions: in vivo.
Series [23] in a line: Protein binding in mouse plasma. It counts as ADME, cell-free.
For series [24], the system named is Mus musculus. As to the kind of experiment: Half life in mouse at 5 mg/kg, iv by ESI-LCMS/MS analysis. It counts as ADME, organism-based. The note with it: in vivo.
Series [25] can be described thus: Dissociation constant, pKa of the compound. It counts as physicochemical.
Series [26] can be described thus: Clearance in mouse at 5 mg/kg, iv by ESI-LCMS/MS analysis. As to conditions: in vivo. It counts as ADME, organism-based.
Series [27] deals with Mus musculus. As to the kind of experiment: Oral bioavailability in mouse at 5 mg/kg by ESI-LCMS/MS analysis. It counts as ADME, organism-based. The note with it: in vivo.
The nature of series [28]: Volume of distribution at steady state in mouse at 5 mg/kg, iv by ESI-LCMS/MS analysis. It is filed as ADME, organism-based. As to conditions: in vivo, read-out: Vdss.
Series [29] can be described thus: Volume of distribution at steady state in rat at 2.5 mg/kg, iv by ESI-LCMS/MS analysis. It is filed as ADME, organism-based. The note with it: in vivo, read-out: Vdss.
Series [30] relates to Rattus norvegicus. The series can be described thus: Oral bioavailability in rat at 5 mg/kg by ESI-LCMS/MS analysis. It is filed as ADME, organism-based. The note with it: in vivo.
Series [31] can be described thus: Cmax in rat at 5 mg/kg, po by ESI-LCMS/MS analysis. It is filed as ADME, organism-based. The arrangement: dose 5 mg/kg, route oral. As to conditions: in vivo.
Series [32] concerns the target Mitogen-activated protein kinase 8 (Homo sapiens, UniProt P45983). The series can be described thus: Inhibition of recombinant human full length His-tagged JNK1 expressed in baculovirus expression system by Z'-LYTE assay.
Series [33] in a line: Clearance in rat at 2.5 mg/kg, iv by ESI-LCMS/MS analysis. It counts as ADME, organism-based. As to conditions: in vivo.

Chain of Mitogen-activated protein kinase 10 (P53779 whole entry): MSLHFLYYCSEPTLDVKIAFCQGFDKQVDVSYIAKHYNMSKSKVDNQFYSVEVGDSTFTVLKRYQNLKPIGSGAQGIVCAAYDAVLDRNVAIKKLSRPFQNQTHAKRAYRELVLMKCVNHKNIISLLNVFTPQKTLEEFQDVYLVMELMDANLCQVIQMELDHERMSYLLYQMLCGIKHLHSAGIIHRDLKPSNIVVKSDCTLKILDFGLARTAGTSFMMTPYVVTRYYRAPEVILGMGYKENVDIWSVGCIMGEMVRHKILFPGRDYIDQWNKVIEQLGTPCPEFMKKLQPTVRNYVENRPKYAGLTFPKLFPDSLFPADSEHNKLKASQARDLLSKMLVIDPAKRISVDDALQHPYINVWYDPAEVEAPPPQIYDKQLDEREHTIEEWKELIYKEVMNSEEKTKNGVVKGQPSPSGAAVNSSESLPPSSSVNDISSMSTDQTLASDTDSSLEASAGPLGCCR
Chain of Mitogen-activated protein kinase 8 (P45983 whole entry): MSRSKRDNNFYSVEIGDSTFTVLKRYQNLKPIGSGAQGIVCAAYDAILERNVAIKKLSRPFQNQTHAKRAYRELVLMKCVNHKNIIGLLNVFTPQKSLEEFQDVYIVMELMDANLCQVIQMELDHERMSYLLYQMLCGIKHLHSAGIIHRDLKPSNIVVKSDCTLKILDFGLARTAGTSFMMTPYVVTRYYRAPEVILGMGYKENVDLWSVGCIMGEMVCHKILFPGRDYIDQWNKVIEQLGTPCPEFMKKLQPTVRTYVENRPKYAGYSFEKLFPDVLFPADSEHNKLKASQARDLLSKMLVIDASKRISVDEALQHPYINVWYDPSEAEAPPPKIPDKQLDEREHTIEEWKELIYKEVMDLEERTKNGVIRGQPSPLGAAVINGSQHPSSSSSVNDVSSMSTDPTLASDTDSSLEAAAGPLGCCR
Chain of Mitogen-activated protein kinase 9 (P45984 whole entry): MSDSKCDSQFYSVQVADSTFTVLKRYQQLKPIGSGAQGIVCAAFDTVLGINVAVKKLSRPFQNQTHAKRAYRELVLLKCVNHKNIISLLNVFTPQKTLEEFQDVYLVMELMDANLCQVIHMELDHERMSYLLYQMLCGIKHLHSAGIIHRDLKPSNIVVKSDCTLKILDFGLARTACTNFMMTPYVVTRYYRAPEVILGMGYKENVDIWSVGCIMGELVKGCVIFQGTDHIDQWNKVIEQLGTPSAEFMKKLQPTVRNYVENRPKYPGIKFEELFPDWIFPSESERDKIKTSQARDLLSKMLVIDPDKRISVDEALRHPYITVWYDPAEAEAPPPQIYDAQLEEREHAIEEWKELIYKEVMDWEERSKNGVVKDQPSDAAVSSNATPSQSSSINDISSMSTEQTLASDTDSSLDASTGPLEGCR
Chain of Leucine-rich repeat serine/threonine-protein kinase 2 (Q5S007 whole entry, the tested form may be a part): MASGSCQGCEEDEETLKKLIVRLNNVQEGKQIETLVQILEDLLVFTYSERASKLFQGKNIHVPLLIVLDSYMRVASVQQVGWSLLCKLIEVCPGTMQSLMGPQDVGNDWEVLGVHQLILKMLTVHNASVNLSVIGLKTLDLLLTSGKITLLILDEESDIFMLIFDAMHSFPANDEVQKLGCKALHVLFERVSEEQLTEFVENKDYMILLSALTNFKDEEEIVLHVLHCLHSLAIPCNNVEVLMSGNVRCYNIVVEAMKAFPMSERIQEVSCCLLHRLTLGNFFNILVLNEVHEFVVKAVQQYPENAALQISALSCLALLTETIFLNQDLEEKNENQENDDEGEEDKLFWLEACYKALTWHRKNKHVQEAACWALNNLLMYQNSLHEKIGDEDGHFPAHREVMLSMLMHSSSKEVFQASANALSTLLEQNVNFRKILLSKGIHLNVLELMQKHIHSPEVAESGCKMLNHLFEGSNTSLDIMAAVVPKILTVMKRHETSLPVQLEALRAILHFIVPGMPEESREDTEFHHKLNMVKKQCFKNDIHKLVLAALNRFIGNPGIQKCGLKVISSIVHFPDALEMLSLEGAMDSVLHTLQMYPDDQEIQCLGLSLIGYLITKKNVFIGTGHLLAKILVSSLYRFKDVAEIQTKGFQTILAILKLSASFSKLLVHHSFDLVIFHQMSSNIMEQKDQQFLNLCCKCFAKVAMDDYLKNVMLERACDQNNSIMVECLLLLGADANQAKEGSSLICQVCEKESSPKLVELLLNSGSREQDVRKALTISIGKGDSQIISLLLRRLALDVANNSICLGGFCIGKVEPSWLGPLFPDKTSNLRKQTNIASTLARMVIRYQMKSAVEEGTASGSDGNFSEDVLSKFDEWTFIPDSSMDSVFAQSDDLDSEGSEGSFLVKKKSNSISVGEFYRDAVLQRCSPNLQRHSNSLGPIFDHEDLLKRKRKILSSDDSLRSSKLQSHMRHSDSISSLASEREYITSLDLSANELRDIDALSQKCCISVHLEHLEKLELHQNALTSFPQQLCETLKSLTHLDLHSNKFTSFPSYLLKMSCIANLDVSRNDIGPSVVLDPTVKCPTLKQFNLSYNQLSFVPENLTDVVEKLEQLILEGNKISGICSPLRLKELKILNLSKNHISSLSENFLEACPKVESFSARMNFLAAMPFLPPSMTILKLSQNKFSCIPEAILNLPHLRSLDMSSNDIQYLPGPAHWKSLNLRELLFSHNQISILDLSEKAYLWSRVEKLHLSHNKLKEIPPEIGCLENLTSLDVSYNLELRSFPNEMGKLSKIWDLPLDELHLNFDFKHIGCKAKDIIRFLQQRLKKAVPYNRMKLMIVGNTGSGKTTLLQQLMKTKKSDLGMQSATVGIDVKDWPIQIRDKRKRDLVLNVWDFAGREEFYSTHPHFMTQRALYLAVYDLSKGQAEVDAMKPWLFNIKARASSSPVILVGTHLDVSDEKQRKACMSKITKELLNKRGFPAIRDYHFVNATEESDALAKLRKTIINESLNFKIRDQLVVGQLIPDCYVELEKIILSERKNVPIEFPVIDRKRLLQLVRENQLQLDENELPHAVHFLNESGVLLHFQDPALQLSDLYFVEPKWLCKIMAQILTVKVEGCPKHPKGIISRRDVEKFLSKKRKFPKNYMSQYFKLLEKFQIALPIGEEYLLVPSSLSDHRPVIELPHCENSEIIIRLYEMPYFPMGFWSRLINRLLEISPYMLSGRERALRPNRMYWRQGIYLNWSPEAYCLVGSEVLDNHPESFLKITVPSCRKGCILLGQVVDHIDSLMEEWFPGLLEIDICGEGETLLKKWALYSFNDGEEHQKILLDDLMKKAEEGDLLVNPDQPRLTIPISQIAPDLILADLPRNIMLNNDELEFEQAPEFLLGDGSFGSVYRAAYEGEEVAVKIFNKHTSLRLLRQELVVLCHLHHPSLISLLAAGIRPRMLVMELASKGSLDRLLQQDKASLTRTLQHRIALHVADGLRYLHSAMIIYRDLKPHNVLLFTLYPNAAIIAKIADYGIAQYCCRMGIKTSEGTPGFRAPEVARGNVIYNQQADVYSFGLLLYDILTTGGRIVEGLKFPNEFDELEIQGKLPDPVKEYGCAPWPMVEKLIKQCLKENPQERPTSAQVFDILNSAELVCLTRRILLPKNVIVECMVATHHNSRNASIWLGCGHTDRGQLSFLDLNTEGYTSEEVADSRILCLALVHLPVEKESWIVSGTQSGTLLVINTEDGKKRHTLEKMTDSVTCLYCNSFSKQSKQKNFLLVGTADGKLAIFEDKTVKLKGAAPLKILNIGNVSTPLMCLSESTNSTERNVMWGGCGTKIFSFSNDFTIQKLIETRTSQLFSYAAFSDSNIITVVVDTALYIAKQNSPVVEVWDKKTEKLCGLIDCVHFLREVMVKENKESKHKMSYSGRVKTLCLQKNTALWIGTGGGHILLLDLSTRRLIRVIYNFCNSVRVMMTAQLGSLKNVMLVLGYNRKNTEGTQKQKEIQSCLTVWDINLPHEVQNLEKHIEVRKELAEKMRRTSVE

Take `COc1cc(-c2nncn2C)ccc1Nc1ncc2ccnc(NCC(C)(C)C)c2n1`: the CLH in [1] came out at 92.1 µL/min/mg; in [5] it was 81.5 µL/min/mg. In addition, the Ki in series [2] was at most 0.07 nM; on CDK2/Cyclin A2 it was 8 nM. Moreover, in [3], the Drug metabolism entry is reported as “Metabolite_Detected”. For the same molecule, the logP in series [4] turned out to be 3.6. For the same molecule, the IC50 at CDK2/Cyclin A2 was determined as 16 nM; in series [6], 3.5 nM.
`COc1cc(-c2nncn2C)ccc1Nc1ncc2cc(C)nc(NCC(C)(C)C)c2n1`: the CLH in series [1] was 23.8 µL/min/mg; in [5], 41.1 µL/min/mg. Further, the figures for the IC50 (in series [2]; on CDK2/Cyclin A2; in series [6]) were 13 nM, 130 nM and 30 nM, respectively. Further, the Ki worked out at 0.13 nM in series [2] and 65 nM on CDK2/Cyclin A2. The Drug metabolism entry in series [7] was “Metabolite_Detected”. Also, in series [4], the logP came out at 3.88. The molecule further displayed a solubility in [8] of 8.6 µM (≈ 3.72 µg/mL).
Take `COc1cc(-c2nncn2C)ccc1Nc1ncc2cc(C)nc(NC(O)C(C)(C)C)c2n1` (configuration not stated): in series [9], the Drug uptake result is recorded as “Active”.
In the case of `CCOc1cc(-c2nncn2C)ccc1Nc1ncc2cc(C)nc(NCC(C)(C)C)c2n1.Cl.Cl`, the exposure AUC(0-t) at 48 h in series [10] turned out to be 147 µM·h. The Cmax in series [11] worked out at 7770 nM. Also, in the series on Canis familiaris [12], the t1/2 was found to be 12 h. The molecule also came in with a bioavailability in series [13] of 100%. Further, in the series on Canis familiaris [14], the Vdss is 1.1 L/kg.
For `COc1cc(-c2nnc(O)n2C)ccc1Nc1ncc2ccnc(NCC(C)(C)C)c2n1`, the Drug uptake result in series [15] is “Active”.
Take `CCOc1cc(-c2nncn2C)ccc1Nc1ncc2cc(C)nc(NCC(C)(C)C)c2n1` [BOS-172722]: the values for the CLH in [1] and in series [5] were 8 µL/min/mg and 26.3 µL/min/mg, respectively. Also, the IC50 in series [2] turned out to be 11 nM; in [17], 48 nM; in [20] it was 76 nM; in series [21], 242 nM; at CDK2/Cyclin A2 it was 1020 nM; in series [32], 92 nM. The molecule also returned a concentration for half-maximal inhibition (IC50) in series [6] of 63 nM. For the same molecule, the Ki in [2] came out at 0.11 nM; on CDK2/Cyclin A2 it was 510 nM. The AUC(0-t) at 6 h in [16] was determined as 11 µM·h. Also, the area under the curve AUC(0-t) at 24 h in series [18] was found to be 11.3 µM·h. In series [4], this molecule returned a logP of 4.23. Moreover, the t1/2 in the series on Rattus norvegicus [19] stood at 4.66 h; in the series on Mus musculus [24], 2.68 h. Also, the Cmax in series [22] was 2760 nM; in series [31] it was 813 nM. The molecule also returned a PPB in series [23] of 99.85%. This molecule also came in with a pKa in series [25] of 2.63 to 6.22. The clearance in [26] amounted to 10.9 mL/min/kg; in [33] it was 10.1 mL/min/kg. The F in the series on Mus musculus [27] is 81%; in the series with Rattus norvegicus [30] it was 63%. The same molecule gave a solubility in series [8] of 6.6 µM (≈ 2.95 µg/mL). In addition, the Vd in [28] worked out at 2.46 L/kg; in series [29] it was 3.52 L/kg.
